Measured values taken from US8119624B2, “Fused phenyl amido heterocyclic compounds” (Pfizer Inc., priority 2006, dated 2012).
Where two headings read alike, the source gives them in different places.

Biological target: T1, Full-length glucokinase (beta cell isoform) (Homo sapiens, UniProt P35557)
T1 construct: Full-length glucokinase (beta cell isoform) was His-tagged at N-terminus; His tag (N); made in house
T1 sequence (P35557 1-465): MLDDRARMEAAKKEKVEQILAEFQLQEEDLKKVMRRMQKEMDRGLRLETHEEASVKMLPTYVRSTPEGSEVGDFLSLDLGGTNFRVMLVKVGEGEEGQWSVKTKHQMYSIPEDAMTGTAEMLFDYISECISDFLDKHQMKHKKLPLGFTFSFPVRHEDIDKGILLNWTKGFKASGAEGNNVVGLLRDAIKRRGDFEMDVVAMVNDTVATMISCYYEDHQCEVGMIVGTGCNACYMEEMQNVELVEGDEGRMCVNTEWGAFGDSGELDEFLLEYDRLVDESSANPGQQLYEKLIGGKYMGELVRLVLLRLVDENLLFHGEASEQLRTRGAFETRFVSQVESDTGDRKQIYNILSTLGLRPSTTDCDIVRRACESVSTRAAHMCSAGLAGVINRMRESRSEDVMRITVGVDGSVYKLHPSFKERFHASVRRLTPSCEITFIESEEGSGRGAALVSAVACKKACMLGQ
Experiment: Glucokinase biochemical assay (PK/LDH-coupled, NADH depletion at 340 nm): % activation, EC50, % max activation
Conditions: 5 mM glucose; for activation at 10 µM: read-out: % Activation at 10 uM; for EC50: read-out: EC50; for Emax: fitted maximum activation, read-out: % Max Activation
Outline: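 N-terminally His-tagged full-length human beta-cell glucokinase, room temperature, 5 mM glucose, 1 mM ATP, PK/LDH-coupled with 0.7 mM NADH, 1% DMSO final. Initial velocity from the 200–900 s slope of A340 decline. % activation = (Va/Vo−1)×100, measured across compound concentrations.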

[1] = 10 uM compound, % Activation=(Va/Vo−1)×100
[2] = compound at 10 uM, 1 mM ATP, room temperature

| SMILES | activation at 10 µM [1] | EC50 (GK activation) | Emax | activation at 10 µM [2] | EC50 (1 mM ATP, room temperature) | Emax (1 mM ATP) |
| --- | --- | --- | --- | --- | --- | --- |
| Cc1ccc(NC(=O)c2cc(Oc3ccc(S(C)(=O)=O)c(F)c3)c3c(c2)OC(C)(C)C3)nc1 [Example 116, 4-(3-Fluoro-4-methanesulfonyl-phenoxy)-2,2-dimethyl-2,3-dihydro-benzofuran-6-carboxylic acid (5-methyl-pyridin-2-yl)-amide] | 110% | 73 nM | 112% | – | – | – |
| Cc1ccc(NC(=O)c2cc(Oc3ccc(S(C)(=O)=O)cc3)c3c(c2)C(=O)N(C(C)C)C3)nc1 [Example 383, 2-Isopropyl-N-(5-methylpyridin-2-yl)-7-(4-(methylsulfonyl)-phenoxy)-3-oxoisoindoline-5-carboxamide] | – | – | – | 32.6% | – | – |
| CN(C)C(=O)c1ccc(Oc2cc(C(=O)Nc3cnn(C)n3)cc3c2CC(C)(C)O3)cc1F [Example 142, 4-(4-Dimethylcarbamoyl-3-fluoro-phenoxy)-2,2-dimethyl-2,3-dihydro-benzofuran-6-carboxylic acid (2-methyl-2H-[1,2,3]triazol-4-yl)-amide] | 145% | 52.8 nM | 130% | – | – | – |
| Cn1ccc(NC(=O)c2cc(Oc3ccc(C(=O)N4CCC4)c(F)c3)c3c(c2)OC(CO)C3)n1 (stereo not shown) [Example 202, 4-[4-(Azetidine-1-carbonyl)-3-fluoro-phenoxy]-2-hydroxymethyl-2,3-dihydro-benzofuran-6-carboxylic acid (1-methyl-1H-pyrazol-3-yl)-amide] | 121% | 360 nM | 108% | – | – | – |
| Cc1cc2c(Oc3ccc(S(=O)(=O)N4CCC4)cc3)cc(C(=O)Nc3cnn(C)n3)cc2o1 [Example 298, 4-(4-(Azetidin-1-ylsulfonyl)phenoxy)-2-methyl-N-(2-methyl-2H-1,2,3-triazol-4-yl)benzofuran-6-carboxamide] | 113% | 210 nM | 132% | – | – | – |
| Cn1ccc(NC(=O)c2cc3c(c(Oc4ccc(S(C)(=O)=O)cc4)c2F)CC(C)(C)O3)n1 [Example 192, 5-Fluoro-4-(4-methanesulfonyl-phenoxy)-2,2-dimethyl-2,3-dihydro-benzofuran-6-carboxylic acid (1-methyl-1H-pyrazol-3-yl)-amide] | 249% | 2100 nM | 285% | – | – | – |
| Cn1ccc(NC(=O)c2cc(OCc3nc(-c4ccccn4)no3)c3c(c2)OC(C)(C)C3)n1 [Example 98, 2,2-Dimethyl-4-(3-pyridin-2-yl-[1,2,4]oxadiazol-5-ylmethoxy)-2,3-dihydro-benzofuran-6-carboxylic acid (1-methyl-1H-pyrazol-3-yl)-amide] | 154% | 1600 nM | 165% | – | – | – |
| COc1cnc(NC(=O)c2cc(Oc3ccc(S(=O)(=O)N(C)C)c(F)c3)c3cc(C)oc3c2)cn1 [Example 307, 4-{4-[(Dimethylamino)sulfonyl]-3-fluorophenoxy}-N-(5-methoxypyrazin-2-yl)-2-methyl-1-benzofuran-6-carboxamide] | 153% | 400 nM | 156% | – | – | – |
| Cc1ccc(NC(=O)c2cc(Oc3ccc(S(C)(=O)=O)cc3)c3c(c2)C(=O)N(C2CC2)C3)nc1 [Example 385, 2-Cyclopropyl-N-(5-methylpyridin-2-yl)-7-(4-(methylsulfonyl)-phenoxy)-3-oxoisoindoline-5-carboxamide] | – | – | – | 93.2% | 4500 nM | 107% |
| COc1ccnc(NC(=O)c2cc(Oc3ccc(S(=O)(=O)N4CCC4)cc3)c3cc(C)oc3c2)c1 [Example 295, 4-(4-(Azetidin-1-ylsulfonyl)phenoxy)-N-(4-methoxypyridin-2-yl)-2-methyl-benzofuran-6-carboxamide] | 46.9% | 360 nM | 50% | – | – | – |
| Cc1cc2c(Oc3ccc(S(C)(=O)=O)cc3)cc(C(=O)Nc3ccn(C)n3)cc2o1 [Example 271, 4-(4-(Methylsulfonyl)phenoxy)-2-methyl-N-(1-methyl-1H-pyrazol-3-yl)benzofuran-6-carboxamide] | 148% | 1300 nM | 184% | – | – | – |
